Experiment [1] has as its target T1, Inhibitor of nuclear factor kappa-B kinase subunit epsilon (Homo sapiens) (UniProt Q14164).
T1 sequence (whole entry): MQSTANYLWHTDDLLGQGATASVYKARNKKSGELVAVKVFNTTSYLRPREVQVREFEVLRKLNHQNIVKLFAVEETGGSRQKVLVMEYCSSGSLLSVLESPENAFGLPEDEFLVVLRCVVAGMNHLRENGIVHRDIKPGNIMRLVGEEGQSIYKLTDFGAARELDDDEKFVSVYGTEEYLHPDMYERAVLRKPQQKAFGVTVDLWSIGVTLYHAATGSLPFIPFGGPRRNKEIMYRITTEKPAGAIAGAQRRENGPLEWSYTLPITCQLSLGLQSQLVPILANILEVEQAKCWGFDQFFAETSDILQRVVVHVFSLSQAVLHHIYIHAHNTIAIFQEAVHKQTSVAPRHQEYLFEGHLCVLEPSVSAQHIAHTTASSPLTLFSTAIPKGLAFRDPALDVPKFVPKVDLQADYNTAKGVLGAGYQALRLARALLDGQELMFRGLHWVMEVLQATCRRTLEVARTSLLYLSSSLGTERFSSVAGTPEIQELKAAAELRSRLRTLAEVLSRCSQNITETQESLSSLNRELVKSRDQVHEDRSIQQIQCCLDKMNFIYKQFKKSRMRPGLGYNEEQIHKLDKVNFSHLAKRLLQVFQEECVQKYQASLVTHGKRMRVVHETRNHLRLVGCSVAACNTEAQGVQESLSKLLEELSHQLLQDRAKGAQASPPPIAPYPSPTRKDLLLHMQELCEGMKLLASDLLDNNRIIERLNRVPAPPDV
The following applies: at 1 µM.

The target in experiment [2] is T2, Tyrosine-protein kinase Mer (Homo sapiens) (UniProt Q12866).
T2 sequence (whole entry): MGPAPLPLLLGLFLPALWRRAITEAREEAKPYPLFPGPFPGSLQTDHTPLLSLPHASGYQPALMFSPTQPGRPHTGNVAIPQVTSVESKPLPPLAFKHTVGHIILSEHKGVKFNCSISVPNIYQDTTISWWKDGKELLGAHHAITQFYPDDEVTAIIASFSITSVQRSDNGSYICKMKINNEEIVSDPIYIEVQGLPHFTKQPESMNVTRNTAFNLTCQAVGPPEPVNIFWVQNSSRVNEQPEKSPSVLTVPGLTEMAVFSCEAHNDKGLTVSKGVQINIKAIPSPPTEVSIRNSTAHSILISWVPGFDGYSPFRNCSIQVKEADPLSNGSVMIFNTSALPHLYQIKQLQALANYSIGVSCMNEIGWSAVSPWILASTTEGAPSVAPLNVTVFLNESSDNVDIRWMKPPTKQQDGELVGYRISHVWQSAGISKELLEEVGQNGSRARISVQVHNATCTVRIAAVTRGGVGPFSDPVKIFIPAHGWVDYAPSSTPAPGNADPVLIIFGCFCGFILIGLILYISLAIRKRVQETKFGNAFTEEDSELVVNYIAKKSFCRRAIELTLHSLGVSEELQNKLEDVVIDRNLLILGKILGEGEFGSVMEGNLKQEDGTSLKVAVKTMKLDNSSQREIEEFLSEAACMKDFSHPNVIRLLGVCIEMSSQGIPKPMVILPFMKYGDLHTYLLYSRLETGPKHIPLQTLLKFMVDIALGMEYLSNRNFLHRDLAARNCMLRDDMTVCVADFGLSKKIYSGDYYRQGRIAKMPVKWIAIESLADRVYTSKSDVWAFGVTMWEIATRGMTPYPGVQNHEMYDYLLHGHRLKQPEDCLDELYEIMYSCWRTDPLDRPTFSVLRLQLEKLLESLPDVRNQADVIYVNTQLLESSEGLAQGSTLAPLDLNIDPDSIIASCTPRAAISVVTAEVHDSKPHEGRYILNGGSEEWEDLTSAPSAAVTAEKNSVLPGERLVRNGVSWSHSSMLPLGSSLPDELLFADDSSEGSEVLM
The following applies: at 10 µM.

Experiment [3] concerns the target T3, Inhibitor of nuclear factor kappa-B kinase subunit alpha (Homo sapiens) (UniProt O15111).
T3 sequence (whole entry): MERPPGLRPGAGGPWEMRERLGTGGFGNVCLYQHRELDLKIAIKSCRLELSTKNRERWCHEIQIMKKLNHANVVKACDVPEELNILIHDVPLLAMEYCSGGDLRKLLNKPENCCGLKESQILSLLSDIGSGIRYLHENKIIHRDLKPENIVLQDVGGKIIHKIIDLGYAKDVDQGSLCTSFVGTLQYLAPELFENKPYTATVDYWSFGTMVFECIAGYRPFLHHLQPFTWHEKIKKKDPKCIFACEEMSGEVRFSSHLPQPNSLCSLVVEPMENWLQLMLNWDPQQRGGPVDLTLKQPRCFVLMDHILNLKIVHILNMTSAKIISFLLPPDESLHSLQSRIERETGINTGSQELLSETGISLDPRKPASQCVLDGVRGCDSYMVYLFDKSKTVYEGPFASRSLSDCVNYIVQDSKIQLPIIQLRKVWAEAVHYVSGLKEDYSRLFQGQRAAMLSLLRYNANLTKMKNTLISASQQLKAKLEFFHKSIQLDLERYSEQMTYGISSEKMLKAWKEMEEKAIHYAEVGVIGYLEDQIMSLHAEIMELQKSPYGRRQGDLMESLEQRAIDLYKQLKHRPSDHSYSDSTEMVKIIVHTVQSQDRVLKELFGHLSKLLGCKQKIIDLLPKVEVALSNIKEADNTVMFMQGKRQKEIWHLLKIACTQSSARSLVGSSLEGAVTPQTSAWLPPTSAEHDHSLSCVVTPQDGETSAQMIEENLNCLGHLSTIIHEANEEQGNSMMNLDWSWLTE
The following applies: at 1 µM.

The values that follow come from ChEMBL document CHEMBL2007661, “Compounds: GSK PKIS; Assays: UNC Frye lab” (2012).

Usually inhibition stands for the drop in the measured response relative to a control, in per cent.

Values joined by “and” are separate entries in the source; they are usually repeats but may differ in a detail not shown here. Equal entries are not always repeated.

For `CC1=C(C(=O)Nc2ccc3[nH]ncc3c2)C(c2ccc(F)cc2)N=C(c2ccc(C(F)(F)F)nc2)N1` (centres undefined), the inhibition in experiment [1] is 3% and 0%; in experiment [2], -4%; in experiment [3], -4%.
Turning to `COc1cccc(-n2ncc3c(N/N=C/c4ccc(S(C)(=O)=O)cc4)ncnc32)c1`, the inhibition in experiment [1] was 3% and 0%; in experiment [2] it was 5%; in experiment [3], 3% and 2%.
For the compound `COc1cccc(-n2ncc3c(N/N=C/c4ccc(C)cc4)ncnc32)c1`, the results for the inhibition in experiment [1], in experiment [2] and in experiment [3] were 0%, 25% and 13%, respectively.
